Paper PMC7689490, “Designed CXCR4 mimic acts as a soluble chemokine receptor that blocks atherogenic inflammation by agonist-specific targeting” (Nature Communications, 2020)
Values joined by “and” are separate entries in the source; they are usually repeats but may differ in a detail not shown here. Identical values can stand only once. Like-named read-outs stand apart in the source and are kept apart here. Each block holds one compound with its values, some of them ahead of it. Where a SMILES comes first, the peptide text is derived from it.

Assays:
[1] = system: primary human monocyte-derived macrophages; assay: MIF-mediated DiI-oxLDL uptake / foam cell formation; type: cell-based; settings: 80 nM MIF; AMD3100 10 µM
Protocol: (§1) After washing with imaging solution (MEM without phenol red containing 30 mM HEPES, 0.5 g/L NaHCO3, pH 7.4, and 0.2% BSA), cells were exposed to 50 µg mL^−1 1,1′-dioctadecyl-3,3,3′3′-tetramethylindocarbocyanine-labeled oxidized LDL (DiI-oxLDL) or DiI-labeled native LDL (DiI-LDL) for 30 min at 4 °C, followed by incubation at 37 °C for 20 min. Cells were washed with ice-cold imaging solution (pH 3.5), fixed, and counter-stained with Hoechst 33258.

[2] = system: primary human monocyte-derived macrophages; assay: MIF-mediated DiI-LDL uptake / foam cell formation; type: cell-based; settings: 80 nM MIF
Protocol: as §1

pAMPK/AMPK in HCM = assay: MIF/CD74-triggered AMPK signaling in human cardiomyocytes (HCM); type: cell-based
Protocol: HCMs (2 × 10^5 per well) were plated in 12-well plates and maintained for 2 days with cultured medium containing 5% FCS. Before stimulation, medium was replaced by fresh myocyte basal medium containing 0.05% FCS and HCMs rested for 16 h. Surface CD74 expression on HCMs was verified by flow cytometry (FITC-conjugated anti-human CD74 (1:100 dilution), FITC-IgG2 (isotype control) (BD Pharmingen), 1 h/4 °C in the dark, BD FACSVerse™ flow cytometer, FlowJo software). […] After treatment, cells were lysed and subjected to SDS-PAGE (10%)/Western blotting using NuPAGE® lithium dodecyl sulfate (LDS)/dithiothreitol (DTT) lysis buffer-containing PhosSTOP^TM reagent (Roche Applied Science). […] Anti-rabbit horse-radish peroxidase (HRP)-conjugated antibody (1:10000, GE Healthcare, Freiburg, Germany) was used for development and signals quantitated by chemiluminescence using an Odyssey® Fc imager. Unprocessed scans of the Western blots are supplied in the Source Data file.

MIF/CD74 = settings: read-out: IC50 value for MIF/CD74 binding; ref [16],[43]; cited from earlier work
Source text: Specificity of the inhib ...

in vitro [3] = settings: C57/BL6, mouse, plasma
in vitro [4] = settings: human, plasma
MIF = target: T1, MIF (Homo sapiens, UniProt P14174); assay: Fluorescence spectroscopic titration of CXCR4 ectodomain peptides (and ISO-1) with MIF; type: binding
T1 construct: made in house; host or cells: E. coli BL21/DE3 (pET11b)
T1 sequence (P14174 2-115): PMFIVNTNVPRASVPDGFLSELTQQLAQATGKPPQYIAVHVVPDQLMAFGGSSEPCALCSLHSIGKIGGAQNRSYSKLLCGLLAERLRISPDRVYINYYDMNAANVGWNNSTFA
Protocol: Fluorescence spectroscopic titrations were performed using a JASCO FP-6500 fluorescence spectrophotometer.

[5] = system: primary mouse spleen B lymphocytes; assay: MIF-triggered Transwell chemotaxis of primary splenic B cells; type: cell-based; settings: 16 nM MIF; peptide at 5-fold molar excess (80 nM);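 note: migration tracked over 4 h at 37 °C, read out as transmigrated cells counted by flow cytometry with absolute counting beads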
Protocol: Briefly, splenic B cells were isolated by negative depletion using a Pan B Cell Isolation Kit (Miltenyi Biotec, Bergisch Gladbach, Germany). […] Chemotaxis was followed for 4 h at 37 °C in a humidified atmosphere of 5% CO2. Migrated cells were counted by flow cytometry using CountBright™ Absolute Counting Beads (Molecular Probes-Invitrogen).

[6] = Circular dichroism (CD) spectroscopy (conformation, concentration dependence); type: physicochemical; settings: far-UV CD at 1-20 µM, 10 mM sodium phosphate pH 7.4, 1% HFIP; region 210-225 nm; compared with msR4M-L1
Protocol: Briefly, far-UV CD measurements were carried out between 195 and 250 nm. The response time was set at 1 s, intervals at 0.1 nm, and bandwidth at 1 nm. All spectra were measured at RT and represent an average of three recorded spectra. Scans were recorded for the ectodomain mimic peptides at a concentration of 1–20 µM in 10 mM sodium phosphate buffer, pH 7.4, containing 1% HFIP, following dilution of freshly made peptide stock solution in HFIP (4 °C) into the buffer-containing cuvette. […] The background spectrum of buffer/1% HFIP alone was subtracted from the spectra of the peptides.

SMILES: c1cc(CN2CCCNCCNCCCNCC2)ccc1CN1CCCNCCNCCCNCC1 [AMD3100]
effect on MIF-mediated DiI-oxLDL uptake [1]: blocked
DiI-LDL uptake (rel. units), MIF + AMD3100 ([2]; control ~1, MIF alone 2.09-3.63, individual experiments (four-times-two)): 0.6486 and 2.2972 and 2.822 and 1.2299 and 1.463 and 1.618 and 1.791 and 1.537

SMILES: COC(=O)CC1CC(c2ccc(O)cc2)=NO1 (centres unmarked) [ISO-1]
Fig. 4e, Mean Diff, (Tukey's multiple comparisons test) (pAMPK/AMPK in HCM; B-C: MIF alone vs. MIF + ISO-1 3.1): 0.3348
Fig. 4e, Mean Diff, (Tukey's multiple comparisons test) (pAMPK/AMPK in HCM; B-D: MIF alone vs. MIF + ISO-1 15.6): 0.4593
Fig. 4e, Mean Diff, (Tukey's multiple comparisons test) (pAMPK/AMPK in HCM; B-E: MIF alone vs. MIF + ISO-1 31.3): 0.6907
Fig. 4e, Mean Diff, (Tukey's multiple comparisons test) (pAMPK/AMPK in HCM; B-F: MIF alone vs. MIF + ISO-1 62.5): 0.8729
IC50 (MIF/CD74): 10 µM

level at 24 h (in vivo; C57/BL6, mouse, 50 ug): > 0.1 µg/mL
level at 48 h (in vivo; C57BL/6, mouse, ip, 50 ug per mouse): ~0.1 µg/mL
half-life at 482 nM (in vitro [3]): ~20 h
SMILES: CC[C@H](C)[C@H](NC(=O)[C@H](Cc1ccc(O)cc1)NC(=O)[C@H](CCCNC(=N)N)NC(=O)[C@H](CC(=O)O)NC(=O)CCCCCCCCCCCNC(=O)CCCCCNC(=O)[C@H](CCCCN)NC(=O)[C@H](CS)NC(=O)[C@H](CC(C)C)NC(=O)[C@H](Cc1ccccc1)NC(=O)[C@H](CC(N)=O)NC(=O)CNC(=O)[C@H](Cc1ccccc1)NC(=O)[C@H](Cc1ccc(O)cc1)NC(=O)[C@H](Cc1c[nH]c2ccccc12)NC(=O)[C@H](CC(N)=O)NC(=O)[C@H](C)NC(=O)[C@@H](NC(=O)[C@H](C)NC(=O)[C@H](CC(=O)O)NC(=O)c1ccc2c(c1)C(=O)OC21c2ccc(N(C)C)cc2Oc2cc(N(C)C)ccc21)C(C)C)C(=O)N[C@@H](CS)C(=O)N[C@@H](CC(=O)O)C(=O)N[C@@H](CCCNC(=N)N)C(=O)N[C@@H](Cc1ccccc1)C(=O)N[C@@H](Cc1ccc(O)cc1)C(=O)N1CCC[C@H]1C(=O)N[C@@H](CC(N)=O)C(=O)N[C@@H](CC(=O)O)C(=O)N[C@@H](CC(C)C)C(=O)N[C@@H](Cc1c[nH]c2ccccc12)C(=O)N[C@H](C(N)=O)C(C)C [TAMRA-msR4M-L1]

remaining at 16 h, 13.7 µM (in vitro [4]): ~45%
SMILES: CC[C@H](C)[C@H](NC(=O)[C@H](Cc1ccc(O)cc1)NC(=O)[C@H](CCCNC(=N)N)NC(=O)[C@H](CC(=O)O)NC(=O)CCCCCCCCCCCNC(=O)CCCCCNC(=O)[C@H](CCCCN)NC(=O)[C@H](CS)NC(=O)[C@H](CC(C)C)NC(=O)[C@H](Cc1ccccc1)NC(=O)[C@H](CC(N)=O)NC(=O)CNC(=O)[C@H](Cc1ccccc1)NC(=O)[C@H](Cc1ccc(O)cc1)NC(=O)[C@H](Cc1c[nH]c2ccccc12)NC(=O)[C@H](CC(N)=O)NC(=O)[C@H](C)NC(=O)[C@@H](NC(=O)[C@H](C)NC(=O)[C@H](CC(=O)O)NC(=O)CCCCCNC(=O)CCCC[C@@H]1SC[C@@H]2NC(=O)N[C@@H]21)C(C)C)C(=O)N[C@@H](CS)C(=O)N[C@@H](CC(=O)O)C(=O)N[C@@H](CCCNC(=N)N)C(=O)N[C@@H](Cc1ccccc1)C(=O)N[C@@H](Cc1ccc(O)cc1)C(=O)N1CCC[C@H]1C(=O)N[C@@H](CC(N)=O)C(=O)N[C@@H](CC(=O)O)C(=O)N[C@@H](CC(C)C)C(=O)N[C@@H](Cc1c[nH]c2ccccc12)C(=O)N[C@H](C(N)=O)C(C)C [biotin-msR4M-L1]

Kd (MIF): > 1 µM
Kd (MIF; App. Kd Fluos-peptide/MIF, 1st curve, fluorescence spectroscopy, replicate 1): > 1 µM
Kd (MIF; App. Kd Fluos-peptide/MIF, 2nd curve, fluorescence spectroscopy, replicate 2): > 1 µM
Kd (MIF; App. Kd Fluos-peptide/MIF, 3rd curve, fluorescence spectroscopy, replicate 3): > 1 µM
Kd (MIF; app. KD Fluos-labeled alanine analog/MIF, fluorescence titration spectroscopy, n=3): > 1 µM
SMILES: CC[C@H](C)[C@H](NC(=O)[C@H](Cc1ccc(O)cc1)NC(=O)[C@H](CCCNC(=N)N)NC(=O)[C@H](CC(=O)O)NC(=O)CCCCCCCCCCCNC(=O)CCCCCNC(=O)[C@H](CCCCN)NC(=O)[C@H](CS)NC(=O)[C@H](CC(C)C)NC(=O)[C@H](C)NC(=O)[C@H](CC(N)=O)NC(=O)CNC(=O)[C@H](C)NC(=O)[C@H](C)NC(=O)[C@H](C)NC(=O)[C@H](CC(N)=O)NC(=O)[C@H](C)NC(=O)[C@@H](NC(=O)[C@H](C)NC(=O)[C@@H](N)CC(=O)O)C(C)C)C(=O)N[C@@H](CS)C(=O)N[C@@H](CC(=O)O)C(=O)N[C@@H](CCCNC(=N)N)C(=O)N[C@@H](C)C(=O)N[C@@H](C)C(=O)N1CCC[C@H]1C(=O)N[C@@H](CC(N)=O)C(=O)N[C@@H](CC(=O)O)C(=O)N[C@@H](CC(C)C)C(=O)N[C@@H](C)C(=O)N[C@H](C(N)=O)C(C)C [msR4M-L1(7xAla)] (HELM PEPTIDE1{D.A.V.A.N.A.A.A.G.N.A.L.C.K.[O=C(CCCCCN[*:1])[*:2]].[O=C(CCCCCCCCCCCN[*:1])[*:2]].D.R.Y.I.C.D.R.A.A.P.N.D.L.A.V.[am]}$$$$V2.0)
inhibition of MIF-mediated B-cell chemotaxis [5]: failed to inhibit
inhibition of MIF-mediated DiI-LDL uptake [2]: failed to inhibit

aggregation propensity from concentration-dependent CD signal [6]: higher aggregation propensity
SMILES: CC[C@H](C)[C@H](NC(=O)[C@H](Cc1ccc(O)cc1)NC(=O)[C@H](CCCNC(=N)N)NC(=O)[C@H](CC(=O)O)NC(=O)CCCCCCCCCCCNC(=O)COCCOCCNC(=O)[C@H](CCCCN)NC(=O)[C@H](CS)NC(=O)[C@H](CC(C)C)NC(=O)[C@H](Cc1ccccc1)NC(=O)[C@H](CC(N)=O)NC(=O)CNC(=O)[C@H](Cc1ccccc1)NC(=O)[C@H](Cc1ccc(O)cc1)NC(=O)[C@H](Cc1c[nH]c2ccccc12)NC(=O)[C@H](CC(N)=O)NC(=O)[C@H](C)NC(=O)[C@@H](NC(=O)[C@H](C)NC(=O)[C@@H](N)CC(=O)O)C(C)C)C(=O)N[C@@H](CS)C(=O)N[C@@H](CC(=O)O)C(=O)N[C@@H](CCCNC(=N)N)C(=O)N[C@@H](Cc1ccccc1)C(=O)N[C@@H](Cc1ccc(O)cc1)C(=O)N1CCC[C@H]1C(=O)N[C@@H](CC(N)=O)C(=O)N[C@@H](CC(=O)O)C(=O)N[C@@H](CC(C)C)C(=O)N[C@@H](Cc1c[nH]c2ccccc12)C(=O)N[C@H](C(N)=O)C(C)C [msR4M-L2]
inhibition of MIF-mediated B-cell chemotaxis [5]: fully blocked
